Assay results taken from patent US20210267986A1, “THERAPEUTIC REGIMENS FOR TREATMENT OF CANCER USING ERIBULIN AND SELECTIVE CDK4/6 INHIBITOR COMBINATIONS” (G1 Therapeutics, Inc., priority 2018, published 2021).

Assays:
[1] = patients receiving eribulin; cited from earlier work
[2] = system: MDA-MB-231 breast cancer xenograft; experiment: MDA-MB-231 xenograft, weekly Compound 1 30 minutes prior to eribulin, tumor volume; type: in vivo, mice
Protocol: The graphs represent mean tumor volume over time. The y-axis is tumor volume measured in cubic millimeters. The x-axis is time measured in days. The dotted line represents dates of weekly treatment. The error bars represent standard error of the mean.
A highly CDK4/6 dependent breast cancer xenograft model (MDA-MB-231) was employed to determine whether transient CDK4/6 inhibition with Compound 1 would antagonize the intended therapeutic effects. First, MD-MB-231 tumor-bearing mice were treated daily with Compound 1 (IP, 100 mg/kg, n=6-8) for 28 days to confirm the CDK4/6 dependency of the xenograft model. Next, MDA-MB-231 tumor-bearing mice were treated with eribulin (IV, 0.5 mg/kg) with or without Compound 1 (IP, 100 mg/kg) weekly for three weeks, with Compound 1 being given 30 minutes prior to chemotherapy treatment. In all experiments, tumors were measured, and tumor volume was calculated twice weekly. […] Therefore, Compound 1 can be administered to preserve hematopoietic stem and progenitor cell (HSPC) and immune system function during eribulin therapy without antagonizing the intended anti-tumor efficacy of eribulin.

MCF7 tumor cells = experiment: EdU incorporation by flow cytometry in MCF7 tumor-bearing mice, tumor cells; type: in vivo; conditions: single dose IP 100 mg/kg
Protocol: (§1) FIG. 2A is a graph depicting the percentage of EdU positive MCF7 tumor cells vs. Edu positive Lin^− bone marrow cells from MCF7 tumor bearing mice treated with Compound 1 at 4, 12, 24, and 48 hours post treatment. MCF7 tumor cells are on the left at each time point while Lin- bone marrow cells are on the right at each time point. FIG. 2B is a graph depicting the percentage of EdU positive MCF7 tumor cells vs. Edu positive Lin^− bone marrow cells from MCF7 tumor bearing mice treated with Compound 1 at 4, 12, 24, and 48 hours post treatment normalized to baseline. MCF7 tumor cells are on the left at each time point while Lin- bone marrow cells are on the right at each time point.
(§2) MCF7 tumor-bearing mice were treated with a single dose of Compound 1 (IP, 100 mg/kg) or vehicle control. After 4, 12, 24, and 48 hours of treatment, animals were pulsed with 5-ethynyl-2′-deoxyuridine (EdU; IP, 200 […]g). Tumors and femurs from each animal were harvested after 4 hours of EdU dosing and processed to single cell suspensions for detection of EdU+ cells by flow cytometry. HSPC in bone marrow is defined as cell populations negative for lineage markers (Mac-1, Gr-1, Ter119, B220, CD4, CD8). […] Students T tests were completed to compare % EdU+ cells (tumor vs bone marrow) at baseline in panel A ****p≤0.0001.

[3] = system: lineage negative (Lin−) bone marrow cells (HSPC); experiment: EdU incorporation by flow cytometry in MCF7 tumor-bearing mice, bone marrow; type: in vivo; conditions: single dose IP 100 mg/kg
Protocol: as §1, §2

[4] = system: MDA-MB-231 breast cancer xenograft; experiment: MDA-MB-231 xenograft, daily Compound 1 with weekly eribulin, tumor volume; type: in vivo, mice
Protocol: The y-axis is tumor volume measured in cubic millimeters. The x-axis is time measured in days. The dotted line represents dates of weekly treatment. The error bars represent standard error of the mean.
A highly CDK4/6 dependent breast cancer xenograft model (MDA-MB-231) was employed to determine whether continuous CDK4/6 inhibition with Compound 1 would antagonize the intended therapeutic effects of eribulin. First, MDA-MB-231 tumor-bearing mice were treated daily with Compound 1 (IP, 100 mg/kg, n=10) for 28 days to confirm the CDK4/6 dependency of the xenograft model. Next, MDA-MB-231 tumor-bearing mice were treated with eribulin (IV, 0.5 mg/kg, n=10) weekly for three weeks. Next, MDA-MB-231 tumor-bearing mice were treated daily with Compound 1 (IP, 100 mg/kg, n=10) and with eribulin (IV, 0.5 mg/kg, n=10) weekly for three weeks, with Compound 1 being given 30 minutes prior to chemotherapy treatment on days 1, 8, and 15. In all experiments, tumors were measured, and tumor volume was calculated twice weekly. The dosing schedule is shown below in Table 1. […] Therefore, Compound 1 can be administered to preserve hematopoietic stem and progenitor cell (HSPC) and immune system function during eribulin therapy without antagonizing the intended anti-tumor efficacy of eribulin.

[5] = MCF7 tumor cells, post treatment
[6] = Lin− bone marrow cells, post treatment

| Compound | incidence of >grade 3 neutropenia [1] | effect of Compound 1 on eribulin therapy (tumor volume) ([2]; Compound 1 IP 100 mg/kg 30 minutes prior to eribulin IV 0.5 mg/kg, weekly for three weeks, compared to eribulin alone) | anti-tumor effect of Compound 1 alone ([2]; IP 100 mg/kg, dosed on a similar schedule as in combination with eribulin (weekly for three weeks)) | time of maximal cell cycle inhibition (% EdU+ normalized to baseline) (MCF7 tumor cells; [5]) [h] | time of reentering the cell cycle (MCF7 tumor cells; [5]) [h] | cell cycle status of tumor cells after Compound 1 (MCF7 tumor cells; S/G2/M) | G1-arrest of hematopoietic stem cells [3] | time of maximal cell cycle inhibition (% EdU+ normalized to baseline) [3, 6] [h] | time of reentering the cell cycle [3, 6] [h] | effect of continuous Compound 1 on eribulin therapy (tumor volume) ([4]; Compound 1 IP 100 mg/kg daily for 28 days plus eribulin IV 0.5 mg/kg weekly for three weeks, compared to eribulin alone) | anti-tumor effect of Compound 1 alone ([4]; IP 100 mg/kg daily for 28 days) |
| --- | --- | --- | --- | --- | --- | --- | --- | --- | --- | --- | --- |
| C=C1C[C@@H]2CC[C@@]34C[C@H]5O[C@H]6[C@@H](O3)[C@H]3O[C@H](CC[C@@H]3O[C@H]6[C@H]5O4)CC(=O)C[C@@H]3[C@@H](OC)[C@@H](C[C@H](O)CN)O[C@H]3C[C@H]3O[C@@H](CC[C@@H]1O2)C[C@@H](C)C3=C [eribulin] | around 57% | – | – | – | – | – | – | – | – | – | – |
| CN1CCN(c2ccc(Nc3ncc4cc5n(c4n3)C3(CCCCC3)CNC5=O)nc2)CC1 [Compound 1, 2′-((5-(4-methylpiperazin-1-yl)pyridin-2-yl)amino)-7′,8′-dihydro-6′H-spiro(cyclohexane-1,9′-pyrazino(1′,2′: 1,5)pyrrolo(2,3-d)pyrimidin)-6′-one] | – | no antagonist effect | did not demonstrate any significant anti-tumor effect | 24 | ≤ 48 | a significant fraction of tumor cells are past the G1 checkpoint | nearly universal G1-arrest | 24 | ≤ 48 | synergistic effect | did demonstrate a significant anti-tumor effect |
